Data on 11 molecules can be found in patent publication US20260356819A1, “OXOISOINDOLINYL-SUBSTITUTED […] DERIVATIVE AND USE THEREOF” (GLUETACS THERAPEUTICS (SHANGHAI) CO., LTD., priority 2023, published 2026).

Holding throughout (format): cell-based
Holding throughout (conditions): compounds at 50 nM and 500 nM

The target in assay [1] is T1, IKZF3 (Homo sapiens, UniProt Q96SW2+Q9UKT9).
T1 construct: The supernatant was aspirated as the extracted total cell protein; endogenous in cells; host or cells: human peripheral blood mononuclear cells (hPBMCs)
T1 sequence (Q9UKT9 whole entry): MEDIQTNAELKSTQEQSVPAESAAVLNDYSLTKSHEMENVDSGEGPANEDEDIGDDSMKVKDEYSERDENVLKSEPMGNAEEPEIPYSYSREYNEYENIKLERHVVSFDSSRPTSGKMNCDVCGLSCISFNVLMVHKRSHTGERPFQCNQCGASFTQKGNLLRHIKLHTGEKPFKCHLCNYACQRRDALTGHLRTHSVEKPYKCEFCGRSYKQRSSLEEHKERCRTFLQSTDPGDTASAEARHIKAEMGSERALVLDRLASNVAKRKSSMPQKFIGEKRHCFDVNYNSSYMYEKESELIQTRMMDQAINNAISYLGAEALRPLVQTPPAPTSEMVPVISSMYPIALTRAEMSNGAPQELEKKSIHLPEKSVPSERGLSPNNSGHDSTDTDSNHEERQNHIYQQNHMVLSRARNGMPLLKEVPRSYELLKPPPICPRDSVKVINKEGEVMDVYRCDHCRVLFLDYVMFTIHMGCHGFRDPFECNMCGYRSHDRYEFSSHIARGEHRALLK
T1 sequence (Q96SW2 whole entry): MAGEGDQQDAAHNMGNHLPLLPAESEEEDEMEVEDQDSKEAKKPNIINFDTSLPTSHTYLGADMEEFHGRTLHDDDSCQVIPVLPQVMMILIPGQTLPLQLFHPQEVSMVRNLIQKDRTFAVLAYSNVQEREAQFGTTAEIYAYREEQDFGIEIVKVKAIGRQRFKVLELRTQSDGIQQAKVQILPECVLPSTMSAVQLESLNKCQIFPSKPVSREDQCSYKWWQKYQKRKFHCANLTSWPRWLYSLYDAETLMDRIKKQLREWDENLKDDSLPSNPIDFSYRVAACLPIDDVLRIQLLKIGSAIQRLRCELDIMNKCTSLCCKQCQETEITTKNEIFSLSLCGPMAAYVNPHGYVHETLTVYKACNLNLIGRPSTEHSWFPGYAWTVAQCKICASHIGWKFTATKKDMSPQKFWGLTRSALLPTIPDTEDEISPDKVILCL
T1 sequence (Q16531 whole entry partner): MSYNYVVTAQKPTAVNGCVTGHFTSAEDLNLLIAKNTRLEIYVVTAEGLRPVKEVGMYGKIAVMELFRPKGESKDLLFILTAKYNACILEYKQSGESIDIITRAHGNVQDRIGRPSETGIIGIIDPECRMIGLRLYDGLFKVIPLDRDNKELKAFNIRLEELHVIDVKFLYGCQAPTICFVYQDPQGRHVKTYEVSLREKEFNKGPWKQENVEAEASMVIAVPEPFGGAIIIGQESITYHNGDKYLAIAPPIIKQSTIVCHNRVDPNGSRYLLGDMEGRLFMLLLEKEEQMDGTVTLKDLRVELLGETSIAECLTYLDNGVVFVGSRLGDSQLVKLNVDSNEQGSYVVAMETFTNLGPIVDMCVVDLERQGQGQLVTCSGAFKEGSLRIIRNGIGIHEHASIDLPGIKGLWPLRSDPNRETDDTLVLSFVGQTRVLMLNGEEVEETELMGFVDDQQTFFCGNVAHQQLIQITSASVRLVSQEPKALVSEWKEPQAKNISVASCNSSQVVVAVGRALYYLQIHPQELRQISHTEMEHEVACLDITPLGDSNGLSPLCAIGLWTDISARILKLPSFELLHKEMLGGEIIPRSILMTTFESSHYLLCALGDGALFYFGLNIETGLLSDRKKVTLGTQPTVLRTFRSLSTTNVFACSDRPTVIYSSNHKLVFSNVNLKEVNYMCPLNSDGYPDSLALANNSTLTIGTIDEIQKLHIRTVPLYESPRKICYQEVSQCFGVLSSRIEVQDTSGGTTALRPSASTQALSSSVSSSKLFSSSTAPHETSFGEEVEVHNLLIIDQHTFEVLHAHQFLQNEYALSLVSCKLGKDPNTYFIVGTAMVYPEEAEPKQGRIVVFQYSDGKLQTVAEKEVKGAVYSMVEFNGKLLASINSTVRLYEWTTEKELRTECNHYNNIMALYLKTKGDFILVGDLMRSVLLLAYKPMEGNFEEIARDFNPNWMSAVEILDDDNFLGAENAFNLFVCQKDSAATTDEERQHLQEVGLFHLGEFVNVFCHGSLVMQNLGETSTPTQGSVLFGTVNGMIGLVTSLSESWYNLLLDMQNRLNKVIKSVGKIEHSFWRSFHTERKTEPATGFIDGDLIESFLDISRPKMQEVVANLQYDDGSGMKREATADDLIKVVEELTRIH
The experiment in a line: Western blot degradation of IKZF3 in hPBMCs (24 h). Summed up: (§1)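 hPBMCs (1×10^6 cells/mL) exposed to compound at 50 nM and 500 nM for 24 h, DMSO as reference. Lysates run on SDS-PAGE and immunoblotted. Band grayscale normalized to internal control gives % protein remaining; DC50 from fitted concentration-response of band intensity versus DMSO.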
In general terms: In western blotting, separated proteins are transferred to a membrane and probed.

The target of assay [2] is T2, GSPT1 (Homo sapiens, UniProt P15170+Q96SW2).
T2 construct: The supernatant was aspirated as the extracted total cell protein; endogenous in cells; host or cells: human peripheral blood mononuclear cells (hPBMCs)
T2 sequence (P15170 whole entry): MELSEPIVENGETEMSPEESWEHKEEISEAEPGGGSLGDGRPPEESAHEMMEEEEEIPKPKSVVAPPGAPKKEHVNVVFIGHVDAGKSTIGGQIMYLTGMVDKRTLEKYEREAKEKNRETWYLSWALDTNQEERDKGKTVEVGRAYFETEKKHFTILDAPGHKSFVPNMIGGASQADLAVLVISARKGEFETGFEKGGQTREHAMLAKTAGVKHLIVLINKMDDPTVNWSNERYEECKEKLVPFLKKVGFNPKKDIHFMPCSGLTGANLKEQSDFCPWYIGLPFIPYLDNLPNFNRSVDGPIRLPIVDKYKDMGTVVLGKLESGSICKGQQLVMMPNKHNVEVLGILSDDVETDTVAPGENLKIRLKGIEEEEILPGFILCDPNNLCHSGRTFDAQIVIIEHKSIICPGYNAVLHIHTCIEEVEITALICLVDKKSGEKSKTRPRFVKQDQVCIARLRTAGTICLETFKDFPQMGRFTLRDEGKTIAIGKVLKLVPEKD
T2 sequence (Q96SW2 whole entry): as the sequence (Q96SW2 whole entry) above
T2 sequence (Q16531 whole entry partner): as the sequence (Q16531 whole entry partner) above
In words: Western blot degradation of GSPT1 in hPBMCs (24 h). Summed up:
as §1

The target of assay [3] is T3, IKZF2 (Homo sapiens, UniProt Q96SW2+Q9UKS7).
T3 construct: The supernatant was aspirated as the extracted total cell protein; endogenous in cells; host or cells: human peripheral blood mononuclear cells (hPBMCs)
The experiment in a line: Western blot degradation of IKZF2 in hPBMCs (24 h). Summed up: as §1

The target in assay [4] is T4, CK1α (Homo sapiens, UniProt P48729+Q96SW2).
T4 construct: The supernatant was aspirated as the extracted total cell protein; endogenous in cells; host or cells: human peripheral blood mononuclear cells (hPBMCs)
T4 sequence (P48729 whole entry): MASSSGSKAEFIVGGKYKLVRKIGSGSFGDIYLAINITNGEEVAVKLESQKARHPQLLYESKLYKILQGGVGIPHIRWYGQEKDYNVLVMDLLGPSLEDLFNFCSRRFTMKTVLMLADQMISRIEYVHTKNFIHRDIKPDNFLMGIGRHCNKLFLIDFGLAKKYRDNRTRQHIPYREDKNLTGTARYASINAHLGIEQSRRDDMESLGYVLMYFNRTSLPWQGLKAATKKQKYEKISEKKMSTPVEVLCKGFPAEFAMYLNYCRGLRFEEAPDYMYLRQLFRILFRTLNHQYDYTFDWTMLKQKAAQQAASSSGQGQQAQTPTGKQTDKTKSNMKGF
T4 sequence (Q96SW2 whole entry): as the sequence (Q96SW2 whole entry) above
T4 sequence (Q16531 whole entry partner): as the sequence (Q16531 whole entry partner) above
The experiment in a line: Western blot degradation of CK1α in hPBMCs (24 h). Summed up: as §1

In assay [5] the target is T5, WEE1 (Homo sapiens, UniProt P30291+Q96SW2).
T5 construct: The supernatant was aspirated as the extracted total cell protein; endogenous in cells; host or cells: human peripheral blood mononuclear cells (hPBMCs)
T5 sequence (P30291 whole entry): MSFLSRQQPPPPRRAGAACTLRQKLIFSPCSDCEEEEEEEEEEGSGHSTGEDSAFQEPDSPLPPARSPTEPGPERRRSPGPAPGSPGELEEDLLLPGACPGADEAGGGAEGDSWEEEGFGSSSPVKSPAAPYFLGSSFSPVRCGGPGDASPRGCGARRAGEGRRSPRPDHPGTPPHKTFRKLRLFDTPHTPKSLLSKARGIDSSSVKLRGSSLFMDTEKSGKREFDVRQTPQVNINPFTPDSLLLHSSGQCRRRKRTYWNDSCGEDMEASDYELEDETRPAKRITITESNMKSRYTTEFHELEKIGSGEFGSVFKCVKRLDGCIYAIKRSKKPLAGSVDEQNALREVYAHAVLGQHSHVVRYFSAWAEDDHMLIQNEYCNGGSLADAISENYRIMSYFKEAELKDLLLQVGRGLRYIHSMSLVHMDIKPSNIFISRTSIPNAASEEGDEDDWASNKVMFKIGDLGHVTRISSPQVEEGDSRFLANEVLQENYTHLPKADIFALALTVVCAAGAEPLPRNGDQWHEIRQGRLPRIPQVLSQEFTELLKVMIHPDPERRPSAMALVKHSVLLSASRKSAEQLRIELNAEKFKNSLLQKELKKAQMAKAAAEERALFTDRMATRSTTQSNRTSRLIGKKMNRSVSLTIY
T5 sequence (Q96SW2 whole entry): as the sequence (Q96SW2 whole entry) above
T5 sequence (Q16531 whole entry partner): as the sequence (Q16531 whole entry partner) above
The experiment in a line: Western blot degradation of WEE1 in hPBMCs (24 h). Summed up: as §1

The target of assay [6] is T6, IKZF1 (Homo sapiens, UniProt Q13422+Q96SW2).
T6 construct: The supernatant was aspirated as the extracted total cell protein; endogenous in cells; host or cells: human peripheral blood mononuclear cells (hPBMCs)
T6 sequence (Q13422 whole entry): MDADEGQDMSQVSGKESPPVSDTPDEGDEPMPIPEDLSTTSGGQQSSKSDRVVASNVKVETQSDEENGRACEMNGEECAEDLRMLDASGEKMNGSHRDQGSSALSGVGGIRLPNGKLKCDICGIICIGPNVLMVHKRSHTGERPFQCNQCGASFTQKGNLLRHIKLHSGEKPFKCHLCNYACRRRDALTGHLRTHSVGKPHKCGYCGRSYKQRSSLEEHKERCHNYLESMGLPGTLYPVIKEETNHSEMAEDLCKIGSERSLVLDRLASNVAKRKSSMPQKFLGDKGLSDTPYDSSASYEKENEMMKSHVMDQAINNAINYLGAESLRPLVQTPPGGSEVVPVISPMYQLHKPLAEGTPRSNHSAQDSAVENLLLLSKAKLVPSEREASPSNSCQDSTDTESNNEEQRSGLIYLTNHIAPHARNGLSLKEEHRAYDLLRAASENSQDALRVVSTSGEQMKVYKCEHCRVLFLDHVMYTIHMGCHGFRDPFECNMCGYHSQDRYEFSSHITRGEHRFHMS
T6 sequence (Q96SW2 whole entry): as the sequence (Q96SW2 whole entry) above
T6 sequence (Q16531 whole entry partner): as the sequence (Q16531 whole entry partner) above
In words: Western blot degradation of IKZF1 in hPBMCs (24 h). Summed up: as §1

Consider `CC1(C)CCC(CN2CC3CC2CN3Cc2ccc3c(c2)C(=O)N(N2CCC(=O)NC2=O)C3=O)=C(c2ccc(Cl)cc2)C1` (stereo not drawn) [GT-07334, 5-((5-((4′-chloro-5,5-dimethyl-3,4,5,6-tetrahydro-[1,1′-biphenyl]-2-yl)methyl)-2,5-diazabicyclo[2.2.1]heptan-2-yl)methyl)-2-(2,4-dioxotetrahydropyrimidin-1(2H)-yl)isoindoline-1,3-dione], for which the “IKZF3 substrate protein remaining %” value in assay [1] is “B (80%< substrate protein remaining % ≤100%)”. The “GSPT1 substrate protein remaining %” value in assay [2] is listed as “B (80%< substrate protein remaining % ≤100%)”. Further, the “IKZF2 substrate protein remaining %” value in assay [3] is “B (80%< substrate protein remaining % ≤100%)”. Besides, the “CK1α substrate protein remaining %” value in assay [4] is reported as “A (0% ≤ substrate protein remaining % ≤80%)”. For the same molecule, in assay [5], the “WEE1 substrate protein remaining %” value is “A (0% ≤ substrate protein remaining % ≤80%)”. Besides, the “IKZF1 substrate protein remaining %” value in assay [6] was “B (80%< substrate protein remaining % ≤100%)”.
Regarding `Cc1cscc1C1CCN(Cc2ccc3c(c2)CN(N2CCC(=O)NC2=O)C3=O)CC1` [GT-07372, 1-(5-((4-(4-methylthiophen-3-yl)piperidin-1-yl)methyl)-1-oxoisoindolin-2-yl)dihydropyrimidine-2,4(1H,3H)-dione], the “IKZF3 substrate protein remaining %” value in assay [1] was “A (0% ≤ substrate protein remaining % ≤80%)”. In addition, in assay [2], the “GSPT1 substrate protein remaining %” value was “A (0% ≤ substrate protein remaining % ≤80%)”. Besides, in assay [3], the “IKZF2 substrate protein remaining %” value is recorded as “B (80%< substrate protein remaining % ≤100%)”. Also, the “CK1α substrate protein remaining %” value in assay [4] is “B (80%< substrate protein remaining % ≤100%)”. In assay [5], the “WEE1 substrate protein remaining %” value is “B (80%< substrate protein remaining % ≤100%)”. Further, the “IKZF1 substrate protein remaining %” value in assay [6] is “B (80%< substrate protein remaining % ≤100%)”.
As for `Cc1cc(C2CCN(Cc3ccc4c(c3)CN(N3CCC(=O)NC3=O)C4=O)CC2)cs1` [GT-07373, 1-(5-((4-(5-methylthiophen-3-yl)piperidin-1-yl)methyl)-1-oxoisoindolin-2-yl)dihydropyrimidine-2,4(1H,3H)-dione], in assay [1], the “IKZF3 substrate protein remaining %” value is “A (0% ≤ substrate protein remaining % ≤80%)”. Moreover, the “GSPT1 substrate protein remaining %” value in assay [2] was “A (0% ≤ substrate protein remaining % ≤80%)”. The “IKZF2 substrate protein remaining %” value in assay [3] is “B (80%< substrate protein remaining % ≤100%)”. The “CK1α substrate protein remaining %” value in assay [4] is recorded as “B (80%< substrate protein remaining % ≤100%)”. For the same molecule, the “WEE1 substrate protein remaining %” value in assay [5] was “B (80%< substrate protein remaining % ≤100%)”. The “IKZF1 substrate protein remaining %” value in assay [6] is “B (80%< substrate protein remaining % ≤100%)”.
With `O=C1CCN(N2Cc3cc(CN4CCC(c5ccco5)CC4)ccc3C2=O)C(=O)N1` [GT-07374, 1-(5-((4-(furan-2-y1)piperidin-1-yl)methyl)-1-oxoisoindolin-2-yl)dihydropyrimidine-2,4(1H,3H)-dione], the “IKZF3 substrate protein remaining %” value in assay [1] is “B (80%< substrate protein remaining % ≤100%)”. Besides, the “GSPT1 substrate protein remaining %” value in assay [2] is on record as “A (0% ≤ substrate protein remaining % ≤80%)”. Besides, in assay [3], the “IKZF2 substrate protein remaining %” value is given as “B (80%< substrate protein remaining % ≤100%)”. Moreover, the “CK1α substrate protein remaining %” value in assay [4] was “A (0% ≤ substrate protein remaining % ≤80%)”. Also, the “WEE1 substrate protein remaining %” value in assay [5] is “B (80%< substrate protein remaining % ≤100%)”. Also, the “IKZF1 substrate protein remaining %” value in assay [6] was “B (80%< substrate protein remaining % ≤100%)”.
As to `O=C1CCN(N2Cc3cc(CN4CCC(c5ccoc5)CC4)ccc3C2=O)C(=O)N1` [GT-07375, 1-(5-((4-(furan-3-yl)piperidin-1-yl)methyl)-1-oxoisoindolin-2-yl)dihydropyrimidine-2,4(1H,3H)-dione], the “IKZF3 substrate protein remaining %” value in assay [1] was “B (80%< substrate protein remaining % ≤100%)”. Also, in assay [2], the “GSPT1 substrate protein remaining %” value is recorded as “A (0% ≤ substrate protein remaining % ≤80%)”. Moreover, the “IKZF2 substrate protein remaining %” value in assay [3] is “B (80%< substrate protein remaining % ≤100%)”. Besides, the “CK1α substrate protein remaining %” value in assay [4] is on record as “A (0% ≤ substrate protein remaining % ≤80%)”. Further, the “WEE1 substrate protein remaining %” value in assay [5] is “B (80%< substrate protein remaining % ≤100%)”. For the same molecule, the “IKZF1 substrate protein remaining %” value in assay [6] is on record as “B (80%< substrate protein remaining % ≤100%)”.
Regarding `O=C1CCN(N2Cc3cc(CN4C5CC4CN(C(=O)C4=C(c6ccc(F)cc6)CCCC4)C5)ccc3C2=O)C(=O)N1` [GT-07376, 1-(5-((3-(4′-fluoro-3,4,5,6-tetrahydro-[1,1′-biphenyl]-2-carbonyl)-3,6-diazabicyclo[3.1.1]heptan-6-yl)methyl)-1-oxoisoindolin-2-yl)dihydropyrimidine-2,4(1H,3H)-dione], in assay [1], the “IKZF3 substrate protein remaining %” value is “B (80%< substrate protein remaining % ≤100%)”. Besides, in assay [2], the “GSPT1 substrate protein remaining %” value is listed as “B (80%< substrate protein remaining % ≤100%)”. The “IKZF2 substrate protein remaining %” value in assay [3] was “B (80%< substrate protein remaining % ≤100%)”. For the same molecule, the “CK1α substrate protein remaining %” value in assay [4] is given as “B (80%< substrate protein remaining % ≤100%)”. Moreover, the “WEE1 substrate protein remaining %” value in assay [5] is given as “A (0% ≤ substrate protein remaining % ≤80%)”. Further, the “IKZF1 substrate protein remaining %” value in assay [6] is reported as “B (80%< substrate protein remaining % ≤100%)”.
On to `O=C1CCN(N2C(=O)c3ccc(CN4C5CC4CN(C(=O)C4=C(c6ccc(F)cc6)CCCC4)C5)cc3C2=O)C(=O)N1` [GT-07377, 2-(2,4-dioxotetrahydropyrimidin-1(2H)-yl)-5-((3-(4′-fluoro-3,4,5,6-tetrahydro-[1,1′-biphenyl]-2-carbonyl)-3,6-diazabicyclo[3.1.1]heptan-6-yl)methyl)isoindoline-1,3-dione], for which, in assay [1], the “IKZF3 substrate protein remaining %” value was “B (80%< substrate protein remaining % ≤100%)”. Besides, the “GSPT1 substrate protein remaining %” value in assay [2] is given as “A (0% ≤ substrate protein remaining % ≤80%)”. Further, the “IKZF2 substrate protein remaining %” value in assay [3] is “A (0% ≤ substrate protein remaining % ≤80%)”. In addition, the “CK1α substrate protein remaining %” value in assay [4] is recorded as “A (0% ≤ substrate protein remaining % ≤80%)”. For the same molecule, the “WEE1 substrate protein remaining %” value in assay [5] is “A (0% ≤ substrate protein remaining % ≤80%)”. The “IKZF1 substrate protein remaining %” value in assay [6] is “B (80%< substrate protein remaining % ≤100%)”.
On to `O=C1CCN(N2C(=O)c3ccc(CN4CCC(c5ccsc5)CC4)cc3C2=O)C(=O)N1` [GT-07420, 2-(2,4-dioxotetrahydropyrimidin-1(2H)-yl)-5-((4-(thiophen-3-yl)piperidin-1-yl)methyl)isoindoline-1,3-dione], for which the “IKZF3 substrate protein remaining %” value in assay [1] was “B (80%< substrate protein remaining % ≤100%)”. For the same molecule, the “GSPT1 substrate protein remaining %” value in assay [2] was “A (0% ≤ substrate protein remaining % ≤80%)”. In assay [3], the “IKZF2 substrate protein remaining %” value was “B (80%< substrate protein remaining % ≤100%)”. Further, the “CK1α substrate protein remaining %” value in assay [4] was “A (0% ≤ substrate protein remaining % ≤80%)”. Also, the “WEE1 substrate protein remaining %” value in assay [5] is “B (80%< substrate protein remaining % ≤100%)”. Also, in assay [6], the “IKZF1 substrate protein remaining %” value is “B (80%< substrate protein remaining % ≤100%)”.
As to `Cc1cc(C2CCN(Cc3ccc4c(c3)C(=O)N(N3CCC(=O)NC3=O)C4=O)CC2)cs1` [GT-07421, 2-(2,4-dioxotetrahydropyrimidin-1(2H)-yl)-5-((4-(5-methylthiophen-3-yl)piperidin-1-yl)methyl)isoindoline-1,3-dione], the “IKZF3 substrate protein remaining %” value in assay [1] is reported as “B (80%< substrate protein remaining % ≤100%)”. The “GSPT1 substrate protein remaining %” value in assay [2] was “A (0% ≤ substrate protein remaining % ≤80%)”. The “IKZF2 substrate protein remaining %” value in assay [3] was “B (80%< substrate protein remaining % ≤100%)”. For the same molecule, the “CK1α substrate protein remaining %” value in assay [4] is reported as “A (0% ≤ substrate protein remaining % ≤80%)”. Also, in assay [5], the “WEE1 substrate protein remaining %” value was “B (80%< substrate protein remaining % ≤100%)”. Moreover, the “IKZF1 substrate protein remaining %” value in assay [6] is “B (80%< substrate protein remaining % ≤100%)”.
Regarding `O=C1CCN(N2C(=O)c3ccc(CN4CCC(c5ccoc5)CC4)cc3C2=O)C(=O)N1` [GT-07422, 2-(2,4-dioxotetrahydropyrimidin-1(2H)-yl)-5-((4-(furan-3-yl)piperidin-1-yl)methyl)isoindoline-1,3-dione], the “IKZF3 substrate protein remaining %” value in assay [1] is “B (80%< substrate protein remaining % ≤100%)”. Moreover, the “GSPT1 substrate protein remaining %” value in assay [2] is listed as “A (0% ≤ substrate protein remaining % ≤80%)”. Moreover, in assay [3], the “IKZF2 substrate protein remaining %” value is listed as “B (80%< substrate protein remaining % ≤100%)”. For the same molecule, the “CK1α substrate protein remaining %” value in assay [4] is given as “A (0% ≤ substrate protein remaining % ≤80%)”. Also, the “WEE1 substrate protein remaining %” value in assay [5] is listed as “B (80%< substrate protein remaining % ≤100%)”. Further, in assay [6], the “IKZF1 substrate protein remaining %” value is given as “B (80%< substrate protein remaining % ≤100%)”.
Consider `Cc1cc(C2=CCN(Cc3ccc4c(c3)C(=O)N(N3CCC(=O)NC3=O)C4=O)CC2)cs1` [GT-07423, 2-(2,4-dioxotetrahydropyrimidin-1(2H)-yl)-5-((4-(5-methylthiophen-3-yl)-3,6-dihydropyridin-1(2H)-yl)methyl)isoindoline-1,3-dione], for which the “IKZF3 substrate protein remaining %” value in assay [1] is listed as “A (0% ≤ substrate protein remaining % ≤80%)”. Further, the “GSPT1 substrate protein remaining %” value in assay [2] was “A (0% ≤ substrate protein remaining % ≤80%)”. Also, in assay [3], the “IKZF2 substrate protein remaining %” value is given as “B (80%< substrate protein remaining % ≤100%)”. Further, the “CK1α substrate protein remaining %” value in assay [4] is “A (0% ≤ substrate protein remaining % ≤80%)”. Also, the “WEE1 substrate protein remaining %” value in assay [5] is listed as “A (0% ≤ substrate protein remaining % ≤80%)”. In addition, the “IKZF1 substrate protein remaining %” value in assay [6] is “B (80%< substrate protein remaining % ≤100%)”.
